Reference: US10934274B2, “Quinoline derivatives as TAM RTK inhibitors” (Qurient Co., Ltd., priority 2015, dated 2021)

How the values were obtained:
Met = target: T1, Met (Homo sapiens, UniProt P08581); test: LanthaScreen Eu kinase binding assay, Met; conditions: Tracer 236, read-out: cMet kinase binding activity (Kd)
T1 construct: purchased Life Technologies

Axl = target: T2, Axl (Homo sapiens, UniProt P30530); test: LanthaScreen Eu kinase binding assay, Axl; conditions: Tracer 236
T2 construct: purchased Life Technologies
T2 sequence (P30530 26-894): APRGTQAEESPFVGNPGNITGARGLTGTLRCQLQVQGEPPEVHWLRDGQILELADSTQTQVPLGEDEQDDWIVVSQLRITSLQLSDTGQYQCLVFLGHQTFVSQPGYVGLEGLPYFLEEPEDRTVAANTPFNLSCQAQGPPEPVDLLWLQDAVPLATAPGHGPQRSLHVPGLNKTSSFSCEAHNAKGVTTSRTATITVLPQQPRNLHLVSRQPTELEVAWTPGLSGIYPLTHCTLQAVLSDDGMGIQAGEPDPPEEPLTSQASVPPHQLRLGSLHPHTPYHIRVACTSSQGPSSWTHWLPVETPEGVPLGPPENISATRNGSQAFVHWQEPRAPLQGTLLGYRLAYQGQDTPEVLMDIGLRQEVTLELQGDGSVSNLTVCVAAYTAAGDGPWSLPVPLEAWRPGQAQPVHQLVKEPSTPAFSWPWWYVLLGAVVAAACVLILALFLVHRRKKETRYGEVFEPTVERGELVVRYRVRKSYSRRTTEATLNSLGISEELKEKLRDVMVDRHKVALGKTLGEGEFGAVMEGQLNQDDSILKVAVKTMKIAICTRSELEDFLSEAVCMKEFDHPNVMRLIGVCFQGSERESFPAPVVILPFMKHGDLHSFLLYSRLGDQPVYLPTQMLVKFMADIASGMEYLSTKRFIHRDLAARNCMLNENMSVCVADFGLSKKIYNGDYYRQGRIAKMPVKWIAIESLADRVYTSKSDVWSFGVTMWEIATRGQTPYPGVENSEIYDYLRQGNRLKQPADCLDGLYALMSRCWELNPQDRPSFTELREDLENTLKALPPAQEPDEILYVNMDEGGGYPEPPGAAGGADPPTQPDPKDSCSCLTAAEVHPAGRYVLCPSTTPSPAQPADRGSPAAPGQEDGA

Mer = target: T3, Mer (Homo sapiens, UniProt Q12866); test: LanthaScreen Eu kinase binding assay, Mer; conditions: Tracer 236
T3 construct: purchased Life Technologies
T3 sequence (Q12866 21-999): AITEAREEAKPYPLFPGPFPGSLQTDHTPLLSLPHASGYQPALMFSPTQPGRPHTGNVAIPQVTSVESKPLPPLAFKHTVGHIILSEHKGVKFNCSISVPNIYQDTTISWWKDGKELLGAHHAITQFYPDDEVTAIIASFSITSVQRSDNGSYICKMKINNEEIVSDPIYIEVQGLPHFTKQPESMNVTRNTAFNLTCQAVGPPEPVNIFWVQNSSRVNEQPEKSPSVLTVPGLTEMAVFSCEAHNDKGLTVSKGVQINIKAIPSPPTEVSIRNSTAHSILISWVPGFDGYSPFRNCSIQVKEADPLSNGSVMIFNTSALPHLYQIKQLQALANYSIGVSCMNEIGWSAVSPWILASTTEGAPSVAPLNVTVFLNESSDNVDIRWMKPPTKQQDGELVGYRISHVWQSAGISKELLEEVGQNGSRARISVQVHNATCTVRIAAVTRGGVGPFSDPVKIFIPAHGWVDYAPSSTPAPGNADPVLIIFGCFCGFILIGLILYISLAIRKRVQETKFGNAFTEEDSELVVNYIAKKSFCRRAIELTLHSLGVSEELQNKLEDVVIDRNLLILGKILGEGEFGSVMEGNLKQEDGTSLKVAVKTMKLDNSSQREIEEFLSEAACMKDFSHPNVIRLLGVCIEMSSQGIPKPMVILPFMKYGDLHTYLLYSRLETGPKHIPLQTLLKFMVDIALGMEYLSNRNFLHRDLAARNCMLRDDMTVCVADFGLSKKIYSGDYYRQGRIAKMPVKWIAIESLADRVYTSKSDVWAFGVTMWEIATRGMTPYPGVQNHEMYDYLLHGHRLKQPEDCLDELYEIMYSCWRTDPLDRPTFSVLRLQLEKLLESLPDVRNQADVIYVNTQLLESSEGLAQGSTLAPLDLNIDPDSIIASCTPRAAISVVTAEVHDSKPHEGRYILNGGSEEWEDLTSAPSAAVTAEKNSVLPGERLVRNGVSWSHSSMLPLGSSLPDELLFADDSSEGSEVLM

T1 sequence (P08581 25-1390): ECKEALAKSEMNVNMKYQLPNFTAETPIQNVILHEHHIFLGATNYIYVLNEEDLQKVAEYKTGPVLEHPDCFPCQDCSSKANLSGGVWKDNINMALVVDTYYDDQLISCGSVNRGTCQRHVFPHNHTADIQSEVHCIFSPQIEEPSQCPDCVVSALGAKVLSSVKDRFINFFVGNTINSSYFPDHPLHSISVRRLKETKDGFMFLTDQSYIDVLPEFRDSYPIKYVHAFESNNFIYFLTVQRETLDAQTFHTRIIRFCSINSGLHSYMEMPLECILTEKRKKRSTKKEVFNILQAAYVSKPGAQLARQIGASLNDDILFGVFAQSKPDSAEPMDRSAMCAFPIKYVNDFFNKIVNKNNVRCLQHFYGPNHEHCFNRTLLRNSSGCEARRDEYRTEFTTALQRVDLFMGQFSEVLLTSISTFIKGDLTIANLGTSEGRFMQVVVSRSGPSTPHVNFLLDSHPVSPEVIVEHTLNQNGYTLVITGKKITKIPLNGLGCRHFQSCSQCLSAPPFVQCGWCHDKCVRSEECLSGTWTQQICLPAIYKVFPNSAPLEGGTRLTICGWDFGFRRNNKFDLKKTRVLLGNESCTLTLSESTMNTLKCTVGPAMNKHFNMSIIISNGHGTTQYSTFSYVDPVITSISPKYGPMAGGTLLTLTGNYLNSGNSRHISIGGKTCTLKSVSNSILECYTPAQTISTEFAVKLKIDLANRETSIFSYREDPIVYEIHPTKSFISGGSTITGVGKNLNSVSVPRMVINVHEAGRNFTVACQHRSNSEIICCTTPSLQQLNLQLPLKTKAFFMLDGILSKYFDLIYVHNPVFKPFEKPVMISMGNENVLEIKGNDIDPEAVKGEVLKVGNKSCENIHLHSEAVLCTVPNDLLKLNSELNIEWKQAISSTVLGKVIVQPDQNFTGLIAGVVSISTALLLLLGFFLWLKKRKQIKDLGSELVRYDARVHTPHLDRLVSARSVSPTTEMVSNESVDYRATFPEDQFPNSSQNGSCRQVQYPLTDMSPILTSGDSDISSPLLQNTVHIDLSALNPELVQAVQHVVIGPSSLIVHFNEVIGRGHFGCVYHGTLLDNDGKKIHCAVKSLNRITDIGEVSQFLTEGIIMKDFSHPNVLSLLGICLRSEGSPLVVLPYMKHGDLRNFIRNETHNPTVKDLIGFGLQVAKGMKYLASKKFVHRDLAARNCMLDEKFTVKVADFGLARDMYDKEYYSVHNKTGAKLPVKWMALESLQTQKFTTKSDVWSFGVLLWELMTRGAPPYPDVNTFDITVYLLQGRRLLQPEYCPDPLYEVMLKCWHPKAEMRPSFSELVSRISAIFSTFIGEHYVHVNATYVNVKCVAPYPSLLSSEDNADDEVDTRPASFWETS

| Structure (SMILES) | Kd (Met) [nM] | Kd (Axl) [nM] | Kd (Mer) [nM] |
| --- | --- | --- | --- |
| CCOc1cn(-c2ccc(OC)cc2)nc1C(=O)Nc1ccc(Oc2ccnc3cc(OC)c(OC)cc23)cn1 [Compound 1] | < 100 | < 100 | < 100 |
| CCOc1cn(-c2cccs2)nc1C(=O)Nc1ccc(Oc2ccnc3cc(OC)c(OC)cc23)cn1 [Compound 17] | < 100 | < 100 | < 100 |
| CCOc1cn(-c2ccsc2)nc1C(=O)Nc1ccc(Oc2ccnc3cc(OC)c(OC)cc23)cn1 [Compound 18] | 100 to 1000 | < 100 | < 100 |
| CCOc1cn(-c2cccnc2Cl)nc1C(=O)Nc1ccc(Oc2ccnc3cc(OC)c(OC)cc23)cn1 [Compound 19] | < 100 | < 100 | < 100 |
| CCOc1cnn(-c2cccs2)c1C(=O)Nc1ccc(Oc2ccnc3cc(OC)c(OC)cc23)cn1 [Compound 20] | 100 to 1000 | < 100 | 100 to 1000 |
| CCOc1cnn(-c2ccsc2)c1C(=O)Nc1ccc(Oc2ccnc3cc(OC)c(OC)cc23)cn1 [Compound 21] | 100 to 1000 | < 100 | 100 to 1000 |
| CCOc1cn(-c2cccnc2C)nc1C(=O)Nc1ccc(Oc2ccnc3cc(OC)c(OC)cc23)cn1 [Compound 23] | < 100 | < 100 | < 100 |
| CCOc1cn(-c2ccncc2Cl)nc1C(=O)Nc1ccc(Oc2ccnc3cc(OC)c(OC)cc23)cn1 [Compound 26] | < 100 | < 100 | < 100 |
| CCOc1cn(CC)nc1C(=O)Nc1ccc(Oc2ccnc3cc(OC)c(OC)cc23)cn1 [Compound 27] | 100 to 1000 | < 100 | < 100 |
| CCOc1cn(C)nc1C(=O)Nc1ccc(Oc2ccnc3cc(OC)c(OC)cc23)cn1 [Compound 29] | 100 to 1000 | 100 to 1000 | < 100 |
| CCOc1cnn(C)c1C(=O)Nc1ccc(Oc2ccnc3cc(OC)c(OC)cc23)cn1 [Compound 30] | 100 to 1000 | ≥ 1000 | 100 to 1000 |
| CCOc1cn(-c2ccc(N(C)C)cc2Cl)nc1C(=O)Nc1ccc(Oc2ccnc3cc(OC)c(OC)cc23)cn1 [Compound 31] | 100 to 1000 | < 100 | < 100 |
| CCOc1cn(-c2cc[nH]c2)nc1C(=O)Nc1ccc(Oc2ccnc3cc(OC)c(OC)cc23)cn1 [Compound 32] | 100 to 1000 | < 100 | < 100 |
| CCOc1cn(-c2ccoc2)nc1C(=O)Nc1ccc(Oc2ccnc3cc(OC)c(OC)cc23)cn1 [Compound 33] | < 100 | < 100 | < 100 |
| CCOc1cn(-c2ccncc2C)nc1C(=O)Nc1ccc(Oc2ccnc3cc(OC)c(OC)cc23)cn1 [Compound 34] | < 100 | < 100 | < 100 |
| CCOc1cn(-c2cnccn2)nc1C(=O)Nc1ccc(Oc2ccnc3cc(OC)c(OC)cc23)cn1 [Compound 36] | < 100 | < 100 | < 100 |
| CCOc1cn(CCn2cccn2)nc1C(=O)Nc1ccc(Oc2ccnc3cc(OC)c(OC)cc23)cn1 [Compound 37] | 100 to 1000 | < 100 | < 100 |
| CCOc1cn(-c2cnsc2)nc1C(=O)Nc1ccc(Oc2ccnc3cc(OC)c(OC)cc23)cn1 [Compound 39] | < 100 | < 100 | < 100 |
| CCOc1cn(-c2ccnnc2)nc1C(=O)Nc1ccc(Oc2ccnc3cc(OC)c(OC)cc23)cn1 [Compound 40] | < 100 | < 100 | < 100 |
